# Data published in patent publication US20190002480A1, “Silane-Containing Heterocyclic Compounds and Methods of Use Thereof for the Treatment of Viral Diseases” (Merck Sharp & Dohme Corp., priority 2015, published 2019).
# Where two headings read alike, the source gives them in different places.
# Tests used:
# HCV replicon GT1a_Y93H = test: Cell-based HCV replicon assay, GT1a Y93H; settings: Hepatitis C virus, 72 h, read-out: GT1a_Y93H EC90
# Experimental: (§1) To measure cell-based anti-HCV activity of compounds of the present invention, two complimentary assays were employed using various replicons. In the first assay (“Replicon Assay A”), replicon cells were seeded at 2000 cells/well in 384-well 384-well flat bottom tissue culture treated clear bottom plate (Corning 3707) in the presence of the test compound. Various concentrations of test compound, typically in 10 serial dilutions, were added to the assay mixture, with the starting concentration ranging from 333.3 nM to […]. The final concentration of DMSO was 0.5%. Fetal bovine serum was 5%, in the assay media. Cells were harvested on day 3 by removing media and washing the cells with a suitable wash buffer. The cells are lysed with the addition of 1× Qiagen lysis buffer (Cat #1062731). The replicon RNA level was measured using real time PCR (TaqMan® EZ RT-PCR, Applied Biosystems 403028) with the following primers and probes: […]
# (§2) Cyclophilin RNA was used as endogenous control and was amplified in the same reaction as NS5B (multiplex PCR). The real-time RT-PCR reactions were run on ABI PRISM 7900HT Sequence Detection System using the following program: 50° C. for 2 minutes, 60° C. for 30 minutes, 95° C. for 5 minutes, 40 cycles of 94 C for 20 sec, 55 C for 1 minutes.
# (§3) The amount of HCV replicon RNA per cell is quantified using a linear regression curve for a known nanogram (ng) amount of HCV replicon total RNA. This is established by plotting the Cycle Threshold values (Ct) from the Neo probe and primer set versus the log (ng) for each HCV replicon total RNA standard. The amount of HCV RNA for each replicon sample is calculated by taking the sample's Ct value, minus the line intercept, divided by the slope of the line. Similarly, the amount of Cyclophilin mRNA per cell is also quantified using a linear regression curve for a known nanogram (ng) amount of HCV replicon total RNA. Again, this is established by plotting the Cycle Threshold values (Ct) from the Cyclophilin probe and primer set versus the log (ng) for each HCV replicon total RNA standard.
# (§4) In an alternate assay (“Replicon Assay B”), 1000 cells were seeded per well in a 384-well collagen coated black plate from Greiner bio-one (Cat #781946) in 5% FBS. Inhibitors of this invention were added at 24 h post-seeding, and the plates were incubated for 3 days. Cells were subsequently lysed with Qiagen lysis buffer (Cat #1062731) to extract the RNA. HCV replicon RNA level was measured by real-time PCR using the RNA-to-CT kit from Applied Biosystem (Cat #4392656) and genotype-specific primers and probes. The amplicon was located within NS5B. The sequence of the PCR primers are as follows: 5B.2F, ATGGACAGGCGCCCTGA (SEQ. ID NO. 1); 5B.2R, […] (SEQ. ID NO. 2); the probe sequence was FAM-labeled CACGCCATGCGCTGCGG (SEQ. ID NO. 3). To detect genotype 1A the primer 1A F, TGCGGAACCGGTGAGTACA and 1A R, […] were used; the probe sequence was FAM-[…].
# (§5) The real-time RT-PCR reactions were run on ABI PRISM 7900HT or Viia7 Sequence Detection System using the following program: 48° C. for 30 minutes, 95 C for 10 minutes, 40 cycles of 95 C for 15 sec, 60 C for 1 minutes. The 50% effective concentration (EC50) was the drug concentration necessary to achieve an increase in the cycle threshold (CT) of 1 over the projected baseline CT. The EC90 was the drug concentration necessary to achieve an increase in CT of 3.2 over the projected baseline CT.
# HCV replicon GT5 = test: Cell-based HCV replicon assay, GT5; settings: Hepatitis C virus, GT5, 72 h; replicon RNA level by real-time PCR, 3 days
# Experimental: as §1, §2, §3, §4, §5
# HCV replicon GT3a_Y93H = test: Cell-based HCV replicon assay, GT3a Y93H; settings: Hepatitis C virus, 72 h, read-out: GT3a_Y93H EC90
# Experimental: as §1, §2, §3, §4, §5
# HCV replicon GT2a = test: Cell-based HCV replicon assay, GT2a; settings: Hepatitis C virus, 72 h, read-out: GT2a EC90
# Experimental: as §1, §2, §3, §4, §5
# HCV replicon GT2b_31M = test: Cell-based HCV replicon assay, GT2b 31M; settings: Hepatitis C virus, 72 h, read-out: GT2b_31M EC90
# Experimental: as §1, §2, §3, §4, §5
# HCV replicon GT6 = test: Cell-based HCV replicon assay, GT6; settings: Hepatitis C virus, GT6, 72 h; replicon RNA level by real-time PCR, 3 days
# Experimental: as §1, §2, §3, §4, §5
# HCV replicon GT1a_L31V = test: Cell-based HCV replicon assay, GT1a L31V; settings: Hepatitis C virus, 72 h, read-out: GT1a_L31V EC90
# Experimental: as §1, §2, §3, §4, §5
# HCV replicon GT3a_WT = test: Cell-based HCV replicon assay, GT3a WT; settings: Hepatitis C virus, 72 h; replicon RNA level by real-time PCR, 3 days
# Experimental: as §1, §2, §3, §4, §5
# HCV replicon GT1a_Q30R = test: Cell-based HCV replicon assay, GT1a Q30R; settings: Hepatitis C virus, 72 h, read-out: GT1a_Q30R EC90
# Experimental: as §1, §2, §3, §4, §5
# HCV replicon GT4 = test: Cell-based HCV replicon assay, GT4; settings: Hepatitis C virus, GT4, 72 h; replicon RNA level by real-time PCR, 3 days
# Experimental: as §1, §2, §3, §4, §5
# HCV replicon GT1b_WT = test: Cell-based HCV replicon assay, GT1b WT; settings: Hepatitis C virus, 72 h, read-out: GT1b_WT EC90
# Experimental: as §1, §2, §3, §4, §5
# [1] = replicon RNA level by real-time PCR, 3 days
SMILES,EC90 (HCV replicon GT1a_Y93H),EC90 (HCV replicon GT5),EC90 (HCV replicon GT3a_Y93H),EC90 (HCV replicon GT2a),EC90 (HCV replicon GT2b_31M),EC90 (HCV replicon GT6),EC90 (HCV replicon GT1a_L31V),EC90 (HCV replicon GT3a_WT),EC90 (HCV replicon GT1a_Q30R),EC90 (HCV replicon GT4),EC90 (HCV replicon GT1b_WT),EC90 (HCV replicon GT1b_WT; [1]),EC90 (HCV replicon GT2a; [1])
COC(=O)N[C@H](C(=O)N1CCC[C@H]1c1ncc(-c2cc(F)c3c(c2)O[C@@H](c2cnc(C4CC4)s2)n2c-3cc3cc(-c4cnc([C@@H]5C[Si](C)(C)CN5C(=O)[C@@H](NC(=O)OC)C(C)C)[nH]4)ccc32)[nH]1)C(C)C [Compound 1],0.231 nM,0.0056 nM,393 nM,0.00278 nM,2.43 nM,0.0059 nM,0.0568 nM,1.77 nM,0.0193 nM,–,–,–,–
COC(=O)NC(C(=O)N1C[Si](C)(C)C[C@H]1c1ncc(-c2ccc3c(c2)cc2n3[C@H](c3cnc(C4CC4)s3)Oc3cc(-c4cnc([C@@H]5CCCN5C(=O)[C@@H](NC(=O)OC)C(C)C)[nH]4)cc(F)c3-2)[nH]1)C1CCOCC1 (stereo partly shown) [Compound 2],0.062 nM,0.0041 nM,168 nM,–,0.231 nM,0.0044 nM,0.003 nM,0.17 nM,0.0043 nM,–,–,–,–
COC(=O)N[C@H](C(=O)N1CCC[C@H]1c1ncc(-c2cc(F)c3c(c2)O[C@@H](c2cnc(C4CC4)s2)n2c-3cc3cc(-c4cnc([C@@H]5C[Si](C)(C)CN5C(=O)[C@@H](NC(=O)OC)[C@@H]5CCOC(C)(C)C5)[nH]4)ccc32)[nH]1)C(C)C [Compound 3],0.079 nM,0.0073 nM,370 nM,0.00167 nM,0.431 nM,0.0076 nM,0.0097 nM,0.285 nM,0.008 nM,0.00112 nM,0.001 nM,–,–
CNC(C(=O)N1C[Si](C)(C)C[C@H]1c1ncc(-c2ccc3c(c2)cc2n3[C@H](c3cnc(C4CC4)s3)Oc3cc(-c4cnc([C@@H]5CCCN5C(=O)[C@@H](NC(=O)OC)C(C)C)[nH]4)cc(F)c3-2)[nH]1)c1ccccc1 (stereo partly shown) [Compound 5],0.33 nM,0.0086 nM,110 nM,–,0.378 nM,0.0088 nM,0.0359 nM,0.257 nM,0.0155 nM,–,–,0.0021 nM,–
COC(=O)NC(C(=O)N1CCC[C@H]1c1ncc(-c2ccc3c(c2)cc2n3[C@H](c3cnc(C4CC4)s3)Oc3cc(-c4cnc([C@@H]5C[Si](C)(C)CN5C(=O)[C@@H](NC(=O)OC)[C@@H]5CCOC(C)(C)C5)[nH]4)cc(F)c3-2)[nH]1)C(C)C (stereo partly shown) [Compound 8],0.271 nM,0.0072 nM,133 nM,0.00118 nM,1.12 nM,0.0079 nM,0.0088 nM,0.709 nM,0.0056 nM,0.00103 nM,–,–,–
COC(=O)NC(C(=O)N1CCC[C@H]1c1ncc(-c2ccc3c(c2)cc2n3[C@H](c3cnc(C4CC4)s3)Oc3cc(-c4cnc([C@@H]5C[Si](C)(C)CN5C(=O)[C@H](N)c5ccccc5)[nH]4)cc(F)c3-2)[nH]1)C(C)C (stereo partly shown) [Compound 10],4.28 nM,0.0139 nM,126 nM,–,12 nM,0.008 nM,0.859 nM,5.48 nM,0.387 nM,–,–,0.00142 nM,0.00246 nM
CN[C@@H](C(=O)N1C[Si](C)(C)C[C@H]1c1ncc(-c2cc(F)c3c(c2)O[C@@H](c2cnc(C4CC4)s2)n2c-3cc3cc(-c4cnc([C@@H]5CCCN5C(=O)C(NC(=O)OC)C(C)C)[nH]4)ccc32)[nH]1)c1ccccc1 (stereo partly shown) [Compound 11],0.933 nM,0.0098 nM,74 nM,–,0.705 nM,0.0066 nM,0.0963 nM,0.347 nM,0.0318 nM,–,–,0.00154 nM,0.001 nM
COC(=O)N[C@H](C(=O)N1CCC[C@H]1c1ncc(-c2cc(F)c3c(c2)O[C@@H](c2cnc(C4CC4)s2)n2c-3cc3cc(-c4cnc([C@@H]5C[Si](C)(C)CN5C(=O)C(N)c5ccccc5)[nH]4)ccc32)[nH]1)C(C)C (stereo partly shown) [Compound 12],0.334 nM,0.0144 nM,155 nM,–,0.061 nM,0.0863 nM,0.149 nM,0.036 nM,0.0776 nM,–,–,0.00141 nM,0.00152 nM
COC(=O)N[C@H](C(=O)N1CCC[C@H]1c1ncc(-c2cc(F)c3c(c2)O[C@@H](c2ccc(C4CC4)s2)n2c-3cc3cc(-c4cnc([C@@H]5C[Si](C)(C)CN5C(=O)[C@@H](N)c5ccccc5)[nH]4)ccc32)[nH]1)C(C)C [Compound 18],1.22 nM,0.0068 nM,206 nM,–,0.062 nM,0.0084 nM,0.0681 nM,0.027 nM,0.0372 nM,–,–,0.00111 nM,–
CNC(C(=O)N1C[Si](C)(C)C[C@H]1c1ncc(-c2ccc3c(c2)cc2n3[C@H](c3ccc(C4CC4)s3)Oc3cc(-c4cnc([C@@H]5CCCN5C(=O)[C@@H](NC(=O)OC)C(C)C)[nH]4)cc(F)c3-2)[nH]1)c1ccccc1 (stereo partly shown) [Compound 19],0.219 nM,0.0048 nM,109 nM,–,0.092 nM,0.0047 nM,0.0106 nM,0.056 nM,0.0053 nM,–,–,–,–
